Measured values as given in ChEMBL document CHEMBL1130739 (Bioorg Med Chem Lett, 1998).

What was measured:
[1] = biological target: Dihydroorotate dehydrogenase (quinone), mitochondrial (Homo sapiens, UniProt Q02127); experiment: Inhibition of human recombinant dihydroorotate dehydrogenase (DHODase)
[2] = Concentration required to inhibit proliferation in a mixture of human lymphocytes using mixed lymphocyte reaction test; format: functional, cell-based

Dihydroorotate dehydrogenase (quinone), mitochondrial, sequence (Q02127 whole entry): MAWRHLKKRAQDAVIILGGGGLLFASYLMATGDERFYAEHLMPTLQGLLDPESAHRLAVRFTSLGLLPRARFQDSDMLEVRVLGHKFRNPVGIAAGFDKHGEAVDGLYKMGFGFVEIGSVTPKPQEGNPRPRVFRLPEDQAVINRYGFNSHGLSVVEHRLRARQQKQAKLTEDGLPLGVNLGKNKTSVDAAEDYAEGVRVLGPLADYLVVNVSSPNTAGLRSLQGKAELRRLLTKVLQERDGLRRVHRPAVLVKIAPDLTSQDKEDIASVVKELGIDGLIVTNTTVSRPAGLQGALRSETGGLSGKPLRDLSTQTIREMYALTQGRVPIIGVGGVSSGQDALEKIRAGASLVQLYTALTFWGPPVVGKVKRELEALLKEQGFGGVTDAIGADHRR

SMILES	Ki [1]	IC50 [2]
O=C(O)c1c2c(nc3ccc(F)cc13)-c1ccc(-c3ccccc3)nc1CC2	409 nM	100 nM
O=C(O)c1c2c(nc3ccc(F)cc13)-c1ccc(-c3ccccc3)cc1CC2	8.3 nM	30 nM
O=C(O)c1c2c(nc3ccc(F)cc13)-c1ccc(-c3ccccc3)cc1SC2	17 nM	16 nM
Cc1ccc(-c2ccc3c(c2)SCc2c-3nc3ccc(F)cc3c2C(=O)O)cc1	13 nM	50 nM
COc1ccccc1-c1ccc2c(c1)CCc1c-2nc2ccc(F)cc2c1C(=O)O	20 nM	50 nM
COc1cccc(-c2ccc3c(n2)CCc2c-3nc3ccc(F)cc3c2C(=O)O)c1	160 nM	300 nM
O=C(O)c1c2c(nc3ccc(F)cc13)-c1cccc(-c3ccccc3)c1CC2	300 nM	> 5000 nM
O=C(O)c1c2c(nc3ccc(F)cc13)-c1ccc(-c3ccsc3)cc1CC2	52 nM	170 nM
O=C(O)c1c2c(nc3ccc(F)cc13)-c1ccc(-c3ccccc3)cc1OC2	48 nM	220 nM
O=C(O)c1c2c(nc3ccc(F)cc13)-c1ccc(-c3ccccc3)cc1S(=O)(=O)C2	139 nM	8500 nM
O=C(O)c1c2c(nc3ccc(F)cc13)-c1ccc(-c3ccccc3)cc1CS2	170 nM	310 nM
Cc1ccccc1-c1ccc2c(c1)CCc1c-2nc2ccc(F)cc2c1C(=O)O	10 nM	30 nM
Cc1ccccc1-c1ccc2c(c1)SCc1c-2nc2ccc(F)cc2c1C(=O)O	27 nM	0.6 nM
O=C(O)c1c2c(nc3ccc(F)cc13)-c1cnc(-c3ccccc3)nc1CC2	380 nM	600 nM
O=C(O)c1c2c(nc3ccc(F)cc13)-c1cccc(Oc3ccccc3)c1CC2	962 nM	> 5000 nM
O=C(O)c1c2c(nc3ccc(F)cc13)-c1ccc(-c3ccoc3)cc1CC2	190 nM	280 nM
Cc1c(-c2ccc(-c3ccccc3F)cc2)nc2ccc(F)cc2c1C(=O)O [BREQUINAR SODIUM]	–	15 nM

Further lines, with some results ahead:

Ki [1]	SMILES	IC50 [2]
37 nM	Cc1cccc(-c2ccc3c(c2)SCc2c-3nc3ccc(F)cc3c2C(=O)O)c1	14 nM
25 nM	Cc1ccccc1-c1ccc2c(c1)CSc1c-2nc2ccc(F)cc2c1C(=O)O	65 nM
81 nM	Cc1cccc(-c2ccc3c(n2)CCc2c-3nc3ccc(F)cc3c2C(=O)O)c1	180 nM
> 1000 nM	O=C(O)c1c2c(nc3ccc(F)cc13)-c1cc(-c3ccccc3)ccc1CC2	> 5000 nM
59 nM	Cc1cccc(-c2ccc3c(c2)CCc2c-3nc3ccc(F)cc3c2C(=O)O)c1	60 nM
43 nM	O=C(O)c1c2c(nc3ccc(F)cc13)-c1ccc(-c3cccc(C(F)(F)F)c3)cc1CC2	18 nM
31 nM	O=C(O)c1c2c(nc3ccc(C(F)(F)F)cc13)-c1ccc(-c3ccccc3)cc1CC2	52 nM
218 nM	Cc1ccc(-c2ccc3c(c2)CSc2c-3nc3ccc(F)cc3c2C(=O)O)cc1	350 nM
40 nM	Cc1ccc(-c2ccc3c(c2)CCc2c-3nc3ccc(F)cc3c2C(=O)O)cc1	28 nM
25 nM	COc1cccc(-c2ccc3c(c2)CCc2c-3nc3ccc(F)cc3c2C(=O)O)c1	10 nM
370 nM	O=C(O)c1c2c(nc3ccc(F)cc13)-c1ccc(-c3ccc(C(F)(F)F)cc3)cc1CC2	850 nM
> 180 nM	O=C(O)c1c2c(nc3ccc(F)cc13)-c1ccc(-c3nccs3)cc1CC2	> 5000 nM
135 nM	Cc1cccc(-c2ccc3c(c2)CSc2c-3nc3ccc(F)cc3c2C(=O)O)c1	170 nM
> 204 nM	O=C(O)c1c2c(nc3ccc(F)cc13)-c1ccc(-c3ccccc3)cc1CO2	380 nM
34 nM	O=C(O)c1c2c(nc3ccc(F)cc13)-c1ccc(-c3ccccc3F)cc1CC2	40 nM
40 nM	O=C(O)c1c2c(nc3ccc(F)cc13)-c1ccc(-c3ccccc3C(F)(F)F)cc1CC2	50 nM
> 182 nM	O=C(O)c1c2c(nc3ccc(F)cc13)-c1sc(-c3ccccc3)cc1CC2	> 10000 nM
206 nM	O=C(O)c1c2c(nc3ccc(F)cc13)-c1ccc(-c3ccccc3)cc1[S+]([O-])C2 (stereo unspecified)	240 nM
55 nM	COc1ccc(-c2ccc3c(c2)CCc2c-3nc3ccc(F)cc3c2C(=O)O)cc1	60 nM
